# Patent publication US8859572B2, “Sulfone substituted 2,3-dihydroimidazo [1,2-C] quinazoline derivatives useful for treating hyper-proliferative disorders and diseases with angiogenesis” (Bayer Intellectual Property GmbH, priority 2008, dated 2014)
# Target: T1, PI3Kβ (recombinant truncated form (ΔN1-108) of the human p110β subunit of PI3K) (Homo sapiens, UniProt P42338)
# T1 construct: His6 (N); made in house; host or cells: Spodoptera frugiperda Sf9 insect cells
# Assay: Solid-phase lipid kinase assay of PI3Kβ
# Type: biochemical
# Settings: 7.5 ng protein/well, final 10 μM ATP, 2 h at rt
# Procedure: To assess inhibition of PI3Kα by compounds, the Maxisorp™ plates were coated with 50 μL/well of a solution containing 50 μg/ml PtdIns and 50 μg/ml PtdSer dissolved in chloroform:ethanol (3:7). The plates were subsequently air-dried by incubation for at least 2 h in a fume hood. The reaction was set up by mixing 25 μL/well of assay buffer 2×(100 mM MOPSO/NaOH, 0.2 M NaCl, pH 7.0, 8 mM MgCl2, 2 mg/mL BSA (fatty acid-free)), and 7.5 ng/well PI3Kα in the lipid pre-coated plate. Test compounds at different concentrations (0.0, 0.003, 0.01 0.03, 0.1, 0.3, 1.0, 3.0 and 10 μM) were added in 2% DMSO. The reaction was initiated by adding 20 μL/well of ATP mix (final 10 μM ATP; 0.05 μCi/well [γ^33P]ATP). After incubation at rt for 2 h, the reaction was terminated by adding 50 μl/well stop solution (50 mM EDTA, pH 8.0). The plate was then washed twice with Tris-buffered saline (TBS, pH 7.4). MicroScint PS™ (PACKARD) scintillation mix was added at 100 μL/well, and radioactivity was counted using a TopCount™ (PACKARD) scintillation counter.
# The inhibition percent at each concentration of compound was calculated, and IC50 values were determined from the inhibition of curve.
# A recombinant truncated form (ΔN1-108) of the human p110β subunit of PI3K with an N-terminal His6-Tag was expressed in S. frugiperda 9 insect cells. Recombinant human PI3Kγ (full length human PI3K p110γ fused with a His6-tag at the C-terminus expressed in S. frugiperda 9 insect cells) was obtained from ALEXIS BIOCHEMICALS (#201-055-0010; San Diego, Calif.).
# Kinase assays using recombinant truncated p110β or the full length p110γ were performed in a similar manner as described in the determination of IC50 values of compounds in the kinase assay of PI3Kα except that these isoforms were assayed using 7.5 ng and 25.0 ng of protein/well, respectively.
# T1 sequence (P42338 109-1070): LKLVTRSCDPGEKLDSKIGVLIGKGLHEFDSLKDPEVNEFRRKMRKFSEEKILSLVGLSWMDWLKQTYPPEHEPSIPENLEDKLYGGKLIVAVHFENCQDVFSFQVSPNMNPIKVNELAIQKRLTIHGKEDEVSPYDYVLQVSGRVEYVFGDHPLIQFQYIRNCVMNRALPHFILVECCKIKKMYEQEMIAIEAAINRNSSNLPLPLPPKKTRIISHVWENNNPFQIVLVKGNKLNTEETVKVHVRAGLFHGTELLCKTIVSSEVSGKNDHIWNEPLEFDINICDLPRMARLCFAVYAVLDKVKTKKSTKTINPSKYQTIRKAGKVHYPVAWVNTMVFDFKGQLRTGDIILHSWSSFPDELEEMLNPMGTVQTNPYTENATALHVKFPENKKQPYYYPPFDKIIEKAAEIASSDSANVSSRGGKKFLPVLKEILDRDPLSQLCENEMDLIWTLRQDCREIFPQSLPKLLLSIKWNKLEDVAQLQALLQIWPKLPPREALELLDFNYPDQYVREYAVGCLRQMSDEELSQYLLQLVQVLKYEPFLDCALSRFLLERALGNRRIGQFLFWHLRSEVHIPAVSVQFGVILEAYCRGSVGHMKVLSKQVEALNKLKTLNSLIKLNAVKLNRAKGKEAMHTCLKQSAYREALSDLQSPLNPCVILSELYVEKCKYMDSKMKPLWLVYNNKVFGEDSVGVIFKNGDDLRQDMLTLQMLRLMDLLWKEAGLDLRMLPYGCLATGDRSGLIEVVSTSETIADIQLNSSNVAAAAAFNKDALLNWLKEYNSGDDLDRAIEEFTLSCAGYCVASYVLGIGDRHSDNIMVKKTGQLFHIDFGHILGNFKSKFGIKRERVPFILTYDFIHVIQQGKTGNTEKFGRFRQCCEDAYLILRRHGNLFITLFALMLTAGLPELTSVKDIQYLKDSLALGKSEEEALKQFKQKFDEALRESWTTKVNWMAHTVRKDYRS
row,Structure (SMILES),IC50
1,"O=C(NC1=Nc2c(OCCCN3CCS(=O)(=O)CC3)cccc2C2=NCCN12)c1cccnc1 [Example 9, N-{7-[3-(1,1-dioxidothiomorpholin-4-yl)propoxy]-2,3 dihydroimidazo[1,2-c]quinazolin-5-yl}nicotinamide]",100 to 3000 nM
2,"Cc1nc(C)c(C(=O)NC2=Nc3cc(OCc4ccc(S(C)(=O)=O)cc4)ccc3C3=NCCN23)s1 [Example 27, 2,4-dimethyl-N-(8-{[4-(methylsulfonyl)benzyl]oxy}-2,3-dihydroimidazo[1,2-c]quinazolin-5-yl)-1,3-thiazole-5-carboxamide]",100 to 3000 nM
3,O=C(NC1=Nc2c(ccc(OCCCN3CCOCC3)c2OCCCS(=O)(=O)N2CCOCC2)C2=NCCN12)c1cccnc1 [Example 12],< 100 nM
4,"COc1c(OCCCN2CCS(=O)(=O)CC2)ccc2c1N=C(NC(=O)c1ccc(N)nc1)N1CCN=C21 [Example 19, 6-amino-N-{8-[3-(1,1-dioxidothiomorpholin-4-yl)propoxy]-7-methoxy-2,3-dihydroimidazo[1,2-c]quinazolin-5-yl}nicotinamide]",< 100 nM

# The next lines start with the values.
row,IC50,Structure (SMILES)
1,< 100 nM,"COc1c(OCCCS(=O)(=O)N2CCOCC2)ccc2c1N=C(NC(=O)c1cccnc1)N1CCN=C21 [Example 3, N-{7-methoxy-8-[3-(morpholin-4-ylsulfonyl)propoxy]-2,3-dihydroimidazo[1,2-c]quinazolin-5-yl}nicotinamide]"
2,< 100 nM,"COc1c(OCc2ccc(S(C)(=O)=O)cc2)ccc2c1N=C(NC(=O)c1cnc(N)nc1)N1CCN=C21 [Example 16, 2-amino-N-(7-methoxy-8-{[4-(methylsulfonyl)benzyl]oxy}-2,3-dihydroimidazo[1,2-c]quinazolin-5-yl)pyrimidine-5-carboxamide]"
3,< 100 nM,"CCN(CC)S(=O)(=O)CCCOc1c(OCCCN2CCOCC2)ccc2c1N=C(NC(=O)c1cccnc1)N1CCN=C21 [Example 14, N-[7-{3-[(Diethylamino)sulfonyl]propoxy}-8-(3-morpholin-4-ylpropoxy)-2,3-dihydroimidazo[1,2-c]quinazolin-5-yl]nicotinamide]"
4,< 100 nM,"COc1c(OCCOCCNS(C)(=O)=O)ccc2c1N=C(NC(=O)c1cccnc1)N1CCN=C21 [Example 31, N-[7-methoxy-8-(2-{2-[(methylsulfonyl)amino]ethoxy}ethoxy)-2,3-dihydroimidazo[1,2-c]quinazolin-5-yl]nicotinamide]"
